{"source": "patent US7476729B2", "about": "“Dbait and uses thereof” (Institut Curie, priority 2003, dated 2009)", "key": {"Hep2 xenografted tumors": {"tested_on": "Hep2 xenografted tumors", "assay": "Radiosensitization of Hep2 (HNSCC) tumors xenografted on nude mice", "format": "in vivo", "parameters": "Mean TGD: unit not given here", "protocol": "In vivo activity of Dbait molecules in association with radiotherapy was assessed by using nude mice xenografted with human tumors by subcutaneous injection of radio-resistant cell lines (Hep2 derived from head and neck squmous cell carcinoma, HNSCC) or tumor fragments (previously obtained by subcutaneous injection of the U87 cell lines derived of glioblastoma).\nInvestigations were mainly carried out on the mice xenografted with radio-resistant human HNSCC tumors in order to establish proof of concept in vivo. Irradiation was performed with γ-rays from a ^137Cs source with appropriate protection of mice in order to perform localized irradiation of tumors. Typical assay condition consists of intratumoral injection of an appropriate preparation of 1 nmole Dbait molecules with transfecting agents (cationic dendrimer (Superefct, Qiagene), dioctadecylamidoglycyl-spermine (DOGS, Polyplus transfection), polyethyleneimine (PEI, Polyplus Transfection) according to manufacturer's instruction, 5 hours prior irradiation. A total dose of 30 Gy was delivered in 5 weeks: i) 3×2 Gy/week (about one every two days); ii) 5 Gy/week; iii) 15 Gy/2 weeks.\nThe size of tumor was measured 2-3 times a week. Treatment by irradiation and intratumoral injection of MEM medium (the Dbait dilution buffer), was used as a control of irradiation treatment without Dbait. The volume of tumor was calculated ([…], where a=length, b=width). The ratio of volume measured at t time over the initial volume (Vt/Vi) was used as indicator of tumor progression. The mice were followed up to 100 days. At least 4 independent series of six animals were tested.\nMEM or Dbait32H (SEQ ID NO: 1) was delivered by intratumoral injection 5 hours prior irradiation. The fractionated irradiation dose (2 Gy) was given one of every two days, three times a week. The treatment lasted 5 weeks totaling 30 Gy irradiation. The dots represent the time course of tumor volume of each mouse. The solid lines are the best polynomial fitting.\nTumor growth was monitored during treatment and after in four groups of 10 animals with different treatments (untreated, treated with Dbait32H (SEQ ID NO: 1) alone, treated by irradiation alone, and the combined Dbait32H (SEQ ID NO: 1) and irradiation). Individual tumor growth is indicated for each animal. The treatment protocol was the same as described in FIG. 4.1. The experiment started when the volume of Hep2 tumors reached 150-200 mm^3. For each treatment session, 20 μg Dbait32H (SEQ ID NO: 1) formulated with polyethyleneimine (PEI, Polyplus Transfection, Strasbourg, France) according to the manufacturer's instruction was injected into tumor 5 hours prior 2 Gy irradiation.\nFor ethical reason, the animals were sacrificed when their tumors reached 2 cm^3. This end-point was used as death in survival analysis. The treatment protocol was described in FIG. 4.3. The five groups were included: untreated, mock-tranfected and irradiated, treated by combined irradiation and increasing amount of Dbait32H (SEQ ID NO: 1) (20, 60 and 120 μg/session). […] Pictures of tumors representative of the groups (untreated, treated with 20 and 60 μg Dbait32H/session associated with 2 Gy irradiation) which were taken 15 days after beginning of treatment, at the end of treatment (35 days) and 13 days after the end of treatment (35+13 days). They provided clear visual comparison of the benefit of the combined Dbait32H (SEQ ID NO: 1) and irradiation treatment.\nDescriptive analyses of the tumor response were performed for each treatment and each tumor type. Day 1 was the day of the first treatment session. All the animals were followed for at least 150 days or until their ethical sacrifice. Median lifetime was estimated according to the Kaplan-Meier method. TGD was calculated by subtracting the mean tumor volume quadrupling time of the control group from tumor volume quadrupling times of individual mice in each treated group. […]"}, "γ-H2AX in Hep2 cells": {"tested_on": "γ-H2AX in Hep2 cells", "assay": "Kinetics of persistence of DSB sites (γ-H2AX) by FACS in irradiated Hep2 cells", "format": "cell-based, human", "conditions": "Hep2, 10 Gy, 0 min to 7 days", "protocol": "To investigate the effect of Dbait on ionizing radiation-induced g-H2AX foci formation and loss, Dbait32H-Cy3 (SEQ ID NO: 1) were transfected in the Hep2 cells by superfect (Qiagen). Transfected or untransfected Hep2 cells were irradiated at 10 Gy. Cells were fixed at different times (0 min, 30 min, 1 hour, 5 hours, 24 hours, 48 hours, 72 hours and 7 days). Primary mouse monoclonal antibody for g-H2AX (ser139) (Upstate, Tempcula, Calif., USA) was used in 1/500 dilution and incubated for 2 hours at 0° C., then washed by PBS buffer and incubated with Alexa 488-conjugated second antibody anti mouse IgG (Molecular Probe, Eugene, Oreg., USA) diluted in 1/200 for 1 hour in dark room."}, "[1]": {"tested_on": "γ-H2AX foci in GMA32 cells", "assay": "Immunodetection of γ-H2AX DSB foci in GMA32 cells", "format": "cell-based, Chinese hamster", "conditions": "GMA32, Dbait with lipofectamine, no irradiation", "protocol": "Under the same conditions, the immunodetection of DSB foci of γ-H2AX phosphorylated on serine 139 by γ-H2AX labeling (bright dots or patches in nuclei) was performed in the untreated GMA32 cells, the cells transfected alone, or transfected with different Dbait molecules by lipofectamine. The counterstaining of cell membranes and nuclei were achieved by FITC-DiOC6 and DAPI. Similar effects of Dbait molecules were observed (FIG. 3.2). […] This provides visual evidence that these Dbait molecules can be used for trapping proteins involved in DSB repair via NHEJ pathway.\nFor immunodetection, the cells were grown on coverslip in 5 cm diameter Petri dishes 24 hours before the transfection with different Dbait molecules. One day after the transfection, FITC-DiOC6 (Molecular probes) was added in the medium 5 minutes at 37° C. (to counterstain the membranes). After 3 washing cycles, the cells were fixated with 4% PFA for 20 minutes.\nAfter additional washing, γ-H2AX phosphorylated on serine 139 (γ-H2AX) was detected with. rabbit anti-γ-H2AX antibody (4411-PC, Trevigen) diluted 1/100 in 1×PBS, 1% BSA. Cells were washed three times with 1×PBS, 0.5%, TritonX-100, then incubated for 1 hour at room temperature with goat anti-rabbit antibodies Alexa 594 (Molecular Probes) diluted 1/100 in 1×PBS, 1% BSA. Cells were visualized by epifluorescence microscopy."}, "[2]": {"conditions": "Hep2, 15 × 2 Gy, 15 × 120 μg (12 nmole)"}, "[3]": {"conditions": "Hep2, no irradiation, 15 × 120 μg (12 nmole)"}, "[4]": {"conditions": "Hep2, 15 × 2 Gy, 15 × 20 μg (1 nmole)"}, "[5]": {"conditions": "Hep2, 15 × 2 Gy, 15 × 60 μg (3 nmole)"}, "[6]": {"conditions": "Hep2, 15 × 2 Gy, 15 × 120 μg (6 nmole)"}, "[7]": {"conditions": "Hep2, no irradiation, 15 × 20 μg (1 nmole)"}}, "data": [{"substance": "Dbait32ss: 32-nt single strand DNA (SEQ ID NO: 1) (DNA ACGCACGGGTGTTGGGTCGTTTGTTCGGATCT; DNA, backbone not given here)", "values": [{"measurement": "Mean % TGD", "setting": "Hep2 xenografted tumors; [2]", "value": 374, "unit": "%"}, {"measurement": "Mean TGD", "setting": "Hep2 xenografted tumors; [2]", "value": 29}, {"measurement": "Median survival time", "setting": "Hep2 xenografted tumors; [2]", "value": 80, "unit": "days"}, {"measurement": "Relative risk", "setting": "Hep2 xenografted tumors; Hep2, 15 × 2 Gy, 15 × 120 μg (12 nmole), reference C* (Mock + irradiation)", "value": 0.57}, {"measurement": "Mean % TGD", "setting": "Hep2 xenografted tumors; [3]", "value": 156, "unit": "%"}, {"measurement": "Mean TGD", "setting": "Hep2 xenografted tumors; [3]", "value": 6}, {"measurement": "Median survival time", "setting": "Hep2 xenografted tumors; [3]", "value": 46, "unit": "days"}, {"measurement": "Relative risk", "setting": "Hep2 xenografted tumors; Hep2, no irradiation, 15 × 120 μg (12 nmole), reference C (untreated)", "value": 0.71}, {"measurement": "in vivo activity (survival of xenografted animals)", "setting": "Hep2 xenografted tumors; high dose (15 × 120 μg)", "value": "inactive"}]}, {"substance": "Dbait32H: hairpin double strand DNA with a stem of 32-bp, hexaethyleneglycol linker, phosphorothioate at the free blunt end (DNA ACGCACGGGTGTTGGGTCGTTTGTTCGGATCT; DNA, backbone not given here; hairpin, hexaethyleneglycol loop, 3-bp phosphorothioate at free blunt end)", "values": [{"measurement": "level of γ-H2AX over time (FACS)", "setting": "γ-H2AX in Hep2 cells", "value": "remained high and long"}, {"measurement": "γ-H2AX DSB foci (cell response)", "setting": "[1]", "value": "effectively trigger similar cell response as if DNA damages were occurred in nuclei"}, {"measurement": "radiosensitization, tumor growth (Vt/Vi)", "setting": "Hep2 xenografted tumors; 1 nmole (20 μg) intratumoral 5 hours prior irradiation, 3×2 Gy/week, 5 weeks, versus MEM+3×2 Gy", "value": "clearly showed radiosensitization"}, {"measurement": "tumor growth", "setting": "Hep2 xenografted tumors; 20 μg with PEI intratumoral 5 hours prior 2 Gy, 15 sessions, versus irradiation or Dbait32H alone", "value": "greatly reduced"}, {"measurement": "survival (Kaplan-Meier), dose dependence", "setting": "Hep2 xenografted tumors; 20, 60 and 120 μg/session with 2 Gy irradiation", "value": "clear dose-dependent effect"}, {"measurement": "Mean % TGD", "setting": "Hep2 xenografted tumors; [4]", "value": 561, "unit": "%"}, {"measurement": "Mean TGD", "setting": "Hep2 xenografted tumors; [4]", "value": 49}, {"measurement": "Median survival time", "setting": "Hep2 xenografted tumors; [4]", "value": 93, "unit": "days"}, {"measurement": "Relative risk", "setting": "Hep2 xenografted tumors; Hep2, 15 × 2 Gy, 15 × 20 μg (1 nmole), reference C* (Mock + irradiation)", "value": 0.42}, {"measurement": "Mean % TGD", "setting": "Hep2 xenografted tumors; [5]", "value": 880, "unit": "%"}, {"measurement": "Mean TGD", "setting": "Hep2 xenografted tumors; [5]", "value": ">83"}, {"measurement": "Median survival time", "setting": "Hep2 xenografted tumors; [5]", "value": 129, "unit": "days"}, {"measurement": "Number of cured mice", "setting": "Hep2 xenografted tumors; [5]", "value": 3}, {"measurement": "Relative risk", "setting": "Hep2 xenografted tumors; Hep2, 15 × 2 Gy, 15 × 60 μg (3 nmole), reference C* (Mock + irradiation)", "value": 0.28}, {"measurement": "Mean % TGD", "setting": "Hep2 xenografted tumors; [6]", "value": 952, "unit": "%"}, {"measurement": "Mean TGD", "setting": "Hep2 xenografted tumors; [6]", "value": ">91"}, {"measurement": "Median survival time", "setting": "Hep2 xenografted tumors; [6]", "value": 150, "unit": "days"}, {"measurement": "Number of cured mice", "setting": "Hep2 xenografted tumors; [6]", "value": 4}, {"measurement": "Relative risk", "setting": "Hep2 xenografted tumors; Hep2, 15 × 2 Gy, 15 × 120 μg (6 nmole), reference C* (Mock + irradiation)", "value": 0.18}, {"measurement": "Mean % TGD", "setting": "Hep2 xenografted tumors; [7]", "value": 168, "unit": "%"}, {"measurement": "Mean TGD", "setting": "Hep2 xenografted tumors; [7]", "value": 7}, {"measurement": "Median survival time", "setting": "Hep2 xenografted tumors; [7]", "value": 55, "unit": "days"}, {"measurement": "Relative risk", "setting": "Hep2 xenografted tumors; Hep2, no irradiation, 15 × 20 μg (1 nmole), reference C (untreated)", "value": 0.62}, {"measurement": "NMR imaging: necrotic area", "setting": "Hep2 xenografted tumors; mid-course (7 sessions), 20 μg/session and 2 Gy/session versus irradiation alone", "value": "necrotic area was more important"}, {"measurement": "histology: necrosis and apoptosis", "setting": "Hep2 xenografted tumors; mid-course treatment (7 sessions), 20 days, combined with irradiation versus irradiation alone", "value": "enhancement of necrosis and apoptosis was observed"}, {"measurement": "radiosensitization depending on dwell time between intratumoral injection and ionizing radiation", "setting": "Hep2 xenografted tumors; xenografted tumors on nude mice", "value": 5, "unit": "hours>>1 hour"}]}]}
